The record followed here is patent US20250367321A1, “COMPOSITIONS AND METHODS INVOLVING ADGRG6” (The Regents of the University of California, priority 2022, published 2025).

The test system of one experiment is adenyl cyclase (AC). Briefly: cAMP levels after treatment with the AC inhibitor. The class given is cell-based, human. The settings on record: for cAMP levels upon aAdo treatment: basal condition. The text has this: (§1) CAMP is a well-known signaling molecule that initiates adipogenesis by increasing protein kinase A (pKA), which then phosphorylates early transcription factors, including C/EBPb. To test whether ADGRG6 might increase cAMP levels in preadipocytes, we measured CAMP levels in WT and ADGRG6 KO human preadipocytes in both basal condition and forskolin which is […], using ELISA. […] We also measured cAMP levels in human preadipocytes that overexpress ADGRG6. […] In order to test whether ADGRG6 can directly affect cAMP levels via adenyl cyclase (AC), that converts ATP to CAMP, we treated ADGRG6 overexpressing preadipocytes with 2′,5′-Dideoxyadenosine (aAdo), an inhibitor of AC. In the basal condition, cAMP levels were reduced in both WT and ADGRG6 overexpressing cells upon aAdo treatment (FIG. 4A). […] Furthermore, we also examined the downstream target of CAMP-PKA, CREB phosphorylation. […] In the stimulated condition, p-CREB increased in WT cells but not in ADGRG6 KO cells (FIG. 4B).
In general terms: cAMP levels reflect the balance of adenylyl cyclase and phosphodiesterase activity.

The next experiment has as its system human preadipocytes. Briefly: cAMP levels by ELISA, basal or forskolin-stimulated. The class given is cell-based. To be noted: WT human preadipocytes, forskolin treatment.
From the text: as §1

Regarding `C[C@H]1O[C@@H](n2cnc3c(N)ncnc32)C[C@@H]1O` [aAdo, 2′,5′-Dideoxyadenosine], the “cAMP levels upon aAdo treatment” value in the experiment with adenyl cyclase (AC) (ADGRG6 overexpressing preadipocytes) and in the experiment with adenyl cyclase (AC) (WT preadipocytes) was “reduced” throughout. Also, the “increase of cAMP levels in ADGRG6 overexpressing preadipocytes compared to WT” value with adenyl cyclase (AC) (Ado stimulated condition) came out at 25%.

`C=C[C@@]1(C)CC(=O)[C@]2(O)[C@@]3(C)[C@@H](O)CCC(C)(C)[C@@H]3[C@H](O)[C@H](OC(C)=O)[C@@]2(C)O1` [forskolin]: the “increase in cAMP levels compared to the basal condition” value with human preadipocytes turned out to be 2 fold.
